Entries after “also recorded” stand apart in the source; their conditions may differ. Like-named read-outs stand apart in the source and are kept apart here.

The subject of assay [1] is MSNs from the NAcb shell. It is filed as cell-based, Sprague-Dawley rats. The note with it: for effect on DA-mediated changes in spike firing / effect on spike firing, intracellular perfusion alone: 1 μM, intracellular perfusion; for effect on increase in spike firing elicited by D1/D2 co-activation: dialysis of neurons; for effect on activation of spike firing by forskolin: peptide in intracellular solution.

In assay [2] the test system is total potassium currents, comprised of IAs, delayed-rectifier, and non-inactivating potassium currents. Put plainly: voltage-clamp measurement of total evoked potassium current. The class given is cell-based, Sprague-Dawley rats.
The subject of assay [3] is MSNs from the NAcb shell.
Procedure: Patch-clamping was performed using visualized infrared-DIC with 2.5 to 3.5 MΩ electrodes. Current pulses were applied using Clampex 8.0 and an Axo-1D patch amplifier in current-clamp mode (Axon Instruments, Foster City, Calif.). Upon breaking into neurons, the resting membrane potentials were between −95 and −80 mV. […] Series resistance correction was 15-20 MΩ. To record EPSPs, a bipolar stimulating electrode was placed ˜100 μM lateral to the recording electrode. Afferents were stimulated with 10 pulses at 20 Hz (20 μs) every 30 seconds using a Master 8 (AMPI, Jerusalem, Israel), and EPSPs were recorded using Clampex in current-clamp mode.
We also performed a within-cell comparison of the spike firing change and the change in input resistance or Vm-rest.

As to `CN1CCc2cc(Cl)c(O)cc2[C@@H](c2ccccc2)C1` [SCH 23990], in the assay with MSNs from the NAcb shell [1] (antagonist 1 μM, pre-exposure), the “change in spike firing with DA after pre-exposure to antagonist” value is given as −0.5+/−4.6%.

With `CC(N)Cc1ccccc1` (stereo not shown) [amphetamine], the “change in spike firing” value in the assay with MSNs from the NAcb shell [1] (10 μM, bath application) is 18.5+/−5.4%.

On to `Oc1cc2c(c(Cl)c1O)CCNCC2c1ccccc1` (stereo not shown) [SKF 81297], for which the “effect on spike firing in cells perfused with Gβγ” value with MSNs from the NAcb shell [1] (10 μM, intracellular Gβγ subunits 20 nM) is listed as “significantly enhanced spike firing”. For the same molecule, in the assay on MSNs from the NAcb shell [1] (1-10 μM, alone), the “effect on spike firing, agonist alone” value is reported as “not altered”. In the assay with MSNs from the NAcb shell [1] (control perfusion without Gβγ), the “change in spike firing in neurons perfused with Gβγ vehicle plus maltose binding protein” value was −2.5+/−2.5%.

Take “α-dendrotoxin (QPRRKLCILHRNPGRCYDKIPAFYYNQKKKQCERFDWSGCGGNSNRFKTIEECRRTCIG; UniProt P00980 1-59, looked up) [α-dtx]”: in the assay on MSNs from the NAcb shell [1] (0.5 μM), the “effect on spike firing” value is “significantly enhanced spike firing”. Besides, the “effect on DA-mediated enhancement of spike firing (occlusion)” value with MSNs from the NAcb shell [1] (0.5 μM pre-exposure) is “significantly occluded the effects of DA”.

On to Norokadaone, for which, in the assay with MSNs from the NAcb shell [1], the “effect on DA-mediated changes in spike firing” value was “did not prevent the effects of DA” and the “effect on spike firing, intracellular perfusion alone” value is reported as “had no effect by itself”.

In the case of `CCCN1CCc2cccc3c2[C@H]1Cc1ccc(O)c(O)c1-3` [NPA, propylnorapomorphine], in the assay with MSNs from the NAcb shell [1] (3 μM, alone), the “effect on spike firing, agonist alone” value is listed as “not altered”.

For `C=C[C@@]1(C)CC(=O)[C@@H]2[C@@]3(C)CCCC(C)(C)[C@@H]3[C@H](O)[C@H](OC(C)=O)[C@@]2(C)O1` [dideoxy-forskolin], in the assay on MSNs from the NAcb shell [1] (5 μM), the “effect on spike firing” value is recorded as “had no effect”.

On to `CCc1cc(Cl)c(OC)c(C(=O)NC[C@@H]2CCCN2CC)c1O` [eticlopride], for which the “change in spike firing with DA after pre-exposure to antagonist” value in the assay on MSNs from the NAcb shell [1] (antagonist 300 nM, pre-exposure) is listed as 2.5+/−5.5%. The “effect on DA-mediated enhancement of spike firing” value with MSNs from the NAcb shell [1] (antagonist 3 μM, pre-exposure) is given as “prevented”.

Turning to YEDSYEDISAYLLSKNNAIPR [FVIII], in the assay on MSNs from the NAcb shell [1] (200 μM), the “effect on increase in spike firing elicited by D1/D2 co-activation” value is recorded as “had no effect”. Also, the “effect on activation of spike firing by forskolin” value in the assay with MSNs from the NAcb shell [1] is recorded as “not prevented”.

Take `C=C1[C@@H](O)[C@@H]2O[C@]3(CC[C@H](/C=C/[C@@H](C)[C@@H]4CC(C)=C[C@@]5(O[C@H](C[C@@](C)(O)C(=O)O)CC[C@H]5O)O4)O3)CC[C@H]2O[C@@H]1[C@@H](O)C[C@H](C)[C@H]1O[C@@]2(CCCCO2)CC[C@H]1C` [okadaic acid]: in the assay with MSNs from the NAcb shell [1], the “effect on DA-mediated changes in spike firing” value is reported as “occluded” and the “effect on spike firing, intracellular perfusion alone” value is recorded as “significantly enhanced”. Moreover, in the assay on MSNs from the NAcb shell [1] (˜13 minutes pre-exposure to 60 μM 4-AP), the “firing change with okadaic acid in the presence of 4-AP” value is recorded as 16+/−4.3%.

Regarding `CCCN1CCC[C@@H]2Cc3n[nH]cc3C[C@H]21` [quinpirole], in the assay with MSNs from the NAcb shell [1], the “effect on spike firing in cells perfused with Gβγ” value is recorded as “not”; the “effect on spike firing, agonist alone” value is “not altered”; the “effect on spike rate, agonist alone” value is “no effect”.

`N[C@@H](CCC(=O)O)C(=O)O` [glutamate]: the “effect on spike rate after exposure to 60 μM 4-AP” value in the assay on MSNs from the NAcb shell [1] (200 μM, after 60 μM 4-AP) is given as “further increased spike rate”.

As for `NCCc1ccc(O)c(O)c1` [DA, Dopamine], the “effect on spike firing” value in the assay with MSNs from the NAcb shell [1] was “significantly and reversibly elevated spike firing”. Further, the “enhancement in spike firing by DA with calcium channels blocked” value in the assay with MSNs from the NAcb shell [1] (pre-incubation with ω-conotoxin GVIA 500 nM and ω-agatoxin IVA 250 nM, continuous nifedipine 30 μM) was 24.0+/−5.0%. In addition, the “effect on potassium current evoked by a 300 ms pulse to 0 mV” value in assay [2] (75 μM) is recorded as “small but significant inhibition”. For the same molecule, in the assay with MSNs from the NAcb shell [3], the “effect on input resistance (R-input)” value is “no significant changes” and the “effect on resting membrane potential (Vm-rest)” value is given as “no significant changes”.

As for DALRIQMEERFMASNPSKVSYEPIT [SPβγ], the “effect on increase in spike firing elicited by D1/D2 co-activation” value with MSNs from the NAcb shell [1] (200 μM) is given as “prevented”. The “effect on activation of spike firing by forskolin” value in the assay with MSNs from the NAcb shell [1] is given as “not prevented”.

For `Nc1ncnc2c1ncn2[C@@H]1O[C@@H]2CO[P@@](O)(=S)O[C@H]2[C@H]1O` [Rp-cAMPS], the “effect on spike firing when added during the DA response” value with MSNs from the NAcb shell [1] (100 μM, during plateau DA response) is recorded as “significantly reduced spike firing to pre-DA levels”.

Turning to `Nc1ccncc1` [4-AP, 4-aminopyridine], the “effect on DA-mediated enhancement of spike firing (occlusion)” value with MSNs from the NAcb shell [1] (60 μM pre-exposure) was “significantly occluded the effects of DA”. Moreover, the “effect on spike firing” value in the assay on MSNs from the NAcb shell [1] (5-60 μM) is recorded as “increased spike firing in a dose-dependent manner; also recorded: significantly enhanced spike firing”. Also, the “change in spike firing with DA after pre-exposure to IAs inhibitor” value in the assay with MSNs from the NAcb shell [1] (inhibitor 10 μM) is listed as 11.4+/−5.1%. In addition, the “effect on potassium current evoked by a 300 ms pulse to 0 mV” value in assay [2] (10 μM) is given as “small but significant inhibition”.

For the origin of these results see patent publication US20040253576A1 (priority 2003, published 2004).
